Values after ≈ are worked out from the molar mass of the structure shown.
Assays:
Enterococcus faecalis [1] = assay: Antibacterial activity against Enterococcus faecalis NCTC12697; type: functional
Micrococcus luteus = assay: Antibacterial activity against Micrococcus luteus; type: functional
Enterococcus faecalis [2] = assay: Antibacterial activity against vancomycin-resistant Enterococcus faecalis; type: functional
Bacillus cereus = assay: Antibacterial activity against Bacillus cereus; type: functional
Bacillus subtilis = assay: Antibacterial activity against Bacillus subtilis; type: functional
Staphylococcus aureus [3] = assay: Antibacterial activity against Staphylococcus aureus EMRSA17; type: functional
Staphylococcus aureus [4] = assay: Antibacterial activity against Staphylococcus aureus NCTC12493
HaCaT [5] = assay: Cytotoxicity against human HaCaT cells at 160 ug/ml incubated for 24 hrs by LDH release assay; type: cell-based; conditions: dose 160 µg/ml
HaCaT [6] = assay: Cytotoxicity against human HaCaT cells at 160 ug/ml incubated for 24 hrs by LDH release assay (reference value: 23.7 +/- 1.4%); type: cell-based; conditions: at 160 µg/mL

Which results are given for GENTAMICIN?
MIC (Enterococcus faecalis [1]): 8 µg/mL; MIC (Micrococcus luteus): 0.25 µg/mL; MIC (Enterococcus faecalis [2]): 8 µg/mL; MIC (Bacillus cereus): 0.25 µg/mL; MIC (Bacillus subtilis): 0.25 µg/mL; MIC (Staphylococcus aureus [3]): > 64 µg/mL

What does the source list for `O=C1O/C(=C\c2c[nH]c3ccccc23)C(c2ccc(O)c(Br)c2)=C1C(=O)c1ccc(O)c(Br)c1`?
MIC (Staphylococcus aureus [4]): 2 µg/mL (≈ 3.44 µM); MIC (Enterococcus faecalis [1]): 8 µg/mL (≈ 13.8 µM); Activity (HaCaT [5]): Non-Toxic; MIC (Micrococcus luteus): 8 µg/mL (≈ 13.8 µM); MIC (Enterococcus faecalis [2]): 8 µg/mL (≈ 13.8 µM); MIC (Bacillus cereus): 4 µg/mL (≈ 6.88 µM); MIC (Bacillus subtilis): 8 µg/mL (≈ 13.8 µM); MIC (Staphylococcus aureus [3]): 4 µg/mL (≈ 6.88 µM)

What does the source list for `O=C1O/C(=C\c2ccco2)C(c2ccco2)=C1C(=O)c1cc(Br)c(O)c(Br)c1`?
MIC (Staphylococcus aureus [4]): 16 µg/mL (≈ 31.6 µM); MIC (Enterococcus faecalis [1]): 64 µg/mL (≈ 126 µM); MIC (Micrococcus luteus): 32 µg/mL (≈ 63.2 µM); MIC (Enterococcus faecalis [2]): 64 µg/mL (≈ 126 µM); MIC (Bacillus cereus): 16 µg/mL (≈ 31.6 µM); MIC (Bacillus subtilis): 32 µg/mL (≈ 63.2 µM); MIC (Staphylococcus aureus [3]): 64 µg/mL (≈ 126 µM)

Which results are given for `O=C1O/C(=C\c2ccc(O)c(Br)c2)C(c2ccc(O)c(Br)c2)=C1C(=O)c1cccs1`?
MIC (Staphylococcus aureus [4]): 8 µg/mL (≈ 14.6 µM); MIC (Enterococcus faecalis [1]): 32 µg/mL (≈ 58.4 µM); MIC (Micrococcus luteus): 8 µg/mL (≈ 14.6 µM); MIC (Enterococcus faecalis [2]): 32 µg/mL (≈ 58.4 µM); MIC (Bacillus cereus): 4 µg/mL (≈ 7.3 µM); MIC (Bacillus subtilis): 8 µg/mL (≈ 14.6 µM); MIC (Staphylococcus aureus [3]): 16 µg/mL (≈ 29.2 µM)

For `O=C1O/C(=C\c2cccs2)C(c2cc(Br)c(O)c(Br)c2)=C1C(=O)c1cc(Br)c(O)c(Br)c1`, which MIC (Staphylococcus aureus [4]) is on record?
The MIC was 32 µg/mL (≈ 45.3 µM).

And the MIC (Enterococcus faecalis [1])?
Its MIC is 64 µg/mL (≈ 90.7 µM).

And the MIC (Micrococcus luteus)?
The MIC was 128 µg/mL (≈ 181 µM).

And the MIC (Enterococcus faecalis [2])?
The MIC was 32 µg/mL (≈ 45.3 µM).

And the MIC (Bacillus cereus)?
Its MIC is 64 µg/mL (≈ 90.7 µM).

And the MIC (Bacillus subtilis)?
Its MIC is 32 µg/mL (≈ 45.3 µM).

What about the MIC (Staphylococcus aureus [3]) of the same compound?
The MIC was 256 µg/mL (≈ 363 µM).

What does the source list for `CCCN1C(=O)C(C(=O)c2ccco2)=C(c2ccc(O)c(Br)c2)C1=Cc1ccc(O)c(Br)c1` (mixture of isomers)?
MIC (Staphylococcus aureus [4]): 8 µg/mL; MIC (Enterococcus faecalis [1]): 16 µg/mL; MIC (Micrococcus luteus): 16 µg/mL; MIC (Enterococcus faecalis [2]): 16 µg/mL; MIC (Bacillus cereus): 4 µg/mL; MIC (Bacillus subtilis): 8 µg/mL; Activity (HaCaT [6]): 55.7%; MIC (Staphylococcus aureus [3]): 16 µg/mL

How did the MIC (Staphylococcus aureus [4]) turn out when `Cn1cc(/C=C2\OC(=O)C(C(=O)c3ccc(O)c(Br)c3)=C2c2ccc(O)c(Br)c2)c2ccccc21` was run?
Its MIC is 2 µg/mL (≈ 3.36 µM).

What about the MIC (Enterococcus faecalis [1]) of the same compound?
The MIC was 16 µg/mL (≈ 26.9 µM).

And the Activity (HaCaT [5])?
Its Activity is “Non-Toxic”.

What about the MIC (Micrococcus luteus) of the same compound?
Its MIC is 2 µg/mL (≈ 3.36 µM).

What about the MIC (Enterococcus faecalis [2]) of the same compound?
The MIC was 8 µg/mL (≈ 13.4 µM).

What about the MIC (Bacillus cereus) of the same compound?
Its MIC is 2 µg/mL (≈ 3.36 µM).

And the MIC (Bacillus subtilis)?
Its MIC is 4 µg/mL (≈ 6.72 µM).

What about the MIC (Staphylococcus aureus [3]) of the same compound?
The MIC was 8 µg/mL (≈ 13.4 µM).

Which results are given for `O=C1O/C(=C\c2cccs2)C(c2ccc(O)c(Br)c2)=C1C(=O)c1cc(Br)c(O)c(Br)c1`?
MIC (Staphylococcus aureus [4]): 8 µg/mL (≈ 12.8 µM); MIC (Enterococcus faecalis [1]): 32 µg/mL (≈ 51 µM); MIC (Micrococcus luteus): 32 µg/mL (≈ 51 µM); MIC (Enterococcus faecalis [2]): 32 µg/mL (≈ 51 µM); MIC (Bacillus cereus): 8 µg/mL (≈ 12.8 µM); MIC (Bacillus subtilis): 4 µg/mL (≈ 6.38 µM); MIC (Staphylococcus aureus [3]): 32 µg/mL (≈ 51 µM)

With `O=C1O/C(=C\c2ccco2)C(c2ccc(O)c(Br)c2)=C1C(=O)c1ccc(O)c(Br)c1` as the compound, how does the MIC (Staphylococcus aureus [4]) read?
Its MIC is 32 µg/mL (≈ 60.1 µM).

What about the MIC (Enterococcus faecalis [1]) of the same compound?
The MIC was 128 µg/mL (≈ 241 µM).

And the MIC (Micrococcus luteus)?
The MIC was 32 µg/mL (≈ 60.1 µM).

And the MIC (Enterococcus faecalis [2])?
Its MIC is 128 µg/mL (≈ 241 µM).

And the MIC (Bacillus cereus)?
The MIC was 32 µg/mL (≈ 60.1 µM).

And the MIC (Bacillus subtilis)?
The MIC was 32 µg/mL (≈ 60.1 µM).

What about the MIC (Staphylococcus aureus [3]) of the same compound?
Its MIC is 64 µg/mL (≈ 120 µM).

Which MIC (Staphylococcus aureus [4]) does the source give for `O=C1O/C(=C\c2cc(Br)c(O)c(Br)c2)C(c2cc(Br)c(O)c(Br)c2)=C1C(=O)c1ccco1` here?
Its MIC is 32 µg/mL (≈ 46.4 µM).

What about the MIC (Enterococcus faecalis [1]) of the same compound?
The MIC was 128 µg/mL (≈ 186 µM).

What about the MIC (Micrococcus luteus) of the same compound?
Its MIC is 32 µg/mL (≈ 46.4 µM).

What about the MIC (Enterococcus faecalis [2]) of the same compound?
Its MIC is 64 µg/mL (≈ 92.8 µM).

And the MIC (Bacillus cereus)?
The MIC was 16 µg/mL (≈ 23.2 µM).

What about the MIC (Bacillus subtilis) of the same compound?
Its MIC is 32 µg/mL (≈ 46.4 µM).

What about the MIC (Staphylococcus aureus [3]) of the same compound?
The MIC was 64 µg/mL (≈ 92.8 µM).

`O=C1O/C(=C\c2ccco2)C(c2cc(Br)c(O)c(Br)c2)=C1C(=O)c1ccco1` was tested. Which MIC (Staphylococcus aureus [4]) did it give?
Its MIC is 64 µg/mL (≈ 126 µM).

What about the MIC (Enterococcus faecalis [1]) of the same compound?
Its MIC is 256 µg/mL (≈ 506 µM).

What about the MIC (Micrococcus luteus) of the same compound?
The MIC was 256 µg/mL (≈ 506 µM).

And the MIC (Enterococcus faecalis [2])?
The MIC was 256 µg/mL (≈ 506 µM).

And the MIC (Bacillus cereus)?
Its MIC is 128 µg/mL (≈ 253 µM).

And the MIC (Bacillus subtilis)?
Its MIC is 256 µg/mL (≈ 506 µM).

And the MIC (Staphylococcus aureus [3])?
Its MIC is 128 µg/mL (≈ 253 µM).

Which results are given for `O=C1O/C(=C\c2ccc(O)c(Br)c2)C(c2ccc(O)c(Br)c2)=C1C(=O)c1ccc(O)c(Br)c1`?
MIC (Staphylococcus aureus [4]): 8 µg/mL (≈ 12.6 µM); MIC (Enterococcus faecalis [1]): 16 µg/mL (≈ 25.1 µM); Activity (HaCaT [5]): Non-Toxic; MIC (Micrococcus luteus): 8 µg/mL (≈ 12.6 µM); MIC (Enterococcus faecalis [2]): 32 µg/mL (≈ 50.2 µM); MIC (Bacillus cereus): 8 µg/mL (≈ 12.6 µM); MIC (Bacillus subtilis): 16 µg/mL (≈ 25.1 µM); MIC (Staphylococcus aureus [3]): 8 µg/mL (≈ 12.6 µM)

How did the MIC (Staphylococcus aureus [4]) turn out when `O=C1O/C(=C\c2cc(Br)c(O)c(Br)c2)C(c2cccs2)=C1C(=O)c1cc(Br)c(O)c(Br)c1` was run?
The MIC was 16 µg/mL (≈ 22.7 µM).

What about the MIC (Enterococcus faecalis [1]) of the same compound?
Its MIC is 16 µg/mL (≈ 22.7 µM).

And the MIC (Micrococcus luteus)?
The MIC was 8 µg/mL (≈ 11.3 µM).

What about the MIC (Enterococcus faecalis [2]) of the same compound?
The MIC was 8 µg/mL (≈ 11.3 µM).

What about the MIC (Bacillus cereus) of the same compound?
Its MIC is 8 µg/mL (≈ 11.3 µM).

And the MIC (Bacillus subtilis)?
The MIC was 8 µg/mL (≈ 11.3 µM).

What about the MIC (Staphylococcus aureus [3]) of the same compound?
The MIC was 16 µg/mL (≈ 22.7 µM).

How did the MIC (Staphylococcus aureus [4]) turn out when `O=C1O/C(=C\c2ccc(O)c(Br)c2)C(c2cc(Br)c(O)c(Br)c2)=C1C(=O)c1cc(Br)c(O)c(Br)c1` [CADIOLIDE D] was run?
The MIC was 32 µg/mL (≈ 40.3 µM).

What about the MIC (Enterococcus faecalis [1]) of the same compound?
Its MIC is 64 µg/mL (≈ 80.5 µM).

What about the MIC (Micrococcus luteus) of the same compound?
The MIC was 64 µg/mL (≈ 80.5 µM).

And the MIC (Enterococcus faecalis [2])?
The MIC was 64 µg/mL (≈ 80.5 µM).

And the MIC (Bacillus cereus)?
The MIC was 32 µg/mL (≈ 40.3 µM).

And the MIC (Bacillus subtilis)?
Its MIC is 64 µg/mL (≈ 80.5 µM).

And the MIC (Staphylococcus aureus [3])?
Its MIC is 64 µg/mL (≈ 80.5 µM).

Which results are given for `CN[C@H](CC(C)C)C(=O)N[C@H]1C(=O)N[C@@H](CC(N)=O)C(=O)N[C@H]2C(=O)N[C@H]3C(=O)N[C@H](C(=O)N[C@H](C(=O)O)c4cc(O)cc(O)c4-c4cc3ccc4O)[C@H](O)c3ccc(c(Cl)c3)Oc3cc2cc(c3O[C@@H]2O[C@H](CO)[C@@H](O)[C@H](O)[C@H]2O[C@H]2C[C@](C)(N)[C@H](O)[C@H](C)O2)Oc2ccc(cc2Cl)[C@H]1O` [VANCOMYCIN]?
MIC (Micrococcus luteus): ≤ 0.13 µg/mL; MIC (Enterococcus faecalis [2]): > 64 µg/mL; MIC (Bacillus subtilis): 0.5 µg/mL (≈ 0.345 µM)

What does the source list for `O=C1O/C(=C\c2cc(Br)c(O)c(Br)c2)C(c2ccco2)=C1C(=O)c1cc(Br)c(O)c(Br)c1`?
MIC (Staphylococcus aureus [4]): 32 µg/mL (≈ 46.4 µM); MIC (Enterococcus faecalis [1]): 32 µg/mL (≈ 46.4 µM); MIC (Micrococcus luteus): 16 µg/mL (≈ 23.2 µM); MIC (Enterococcus faecalis [2]): 64 µg/mL (≈ 92.8 µM); MIC (Bacillus cereus): 16 µg/mL (≈ 23.2 µM); MIC (Bacillus subtilis): 16 µg/mL (≈ 23.2 µM); MIC (Staphylococcus aureus [3]): 64 µg/mL (≈ 92.8 µM)

Reference: ChEMBL document CHEMBL4665840, “New antibacterial cadiolide analogues active against antibiotic-resistant strains” (Bioorg Med Chem Lett, 2020)
